Structures can show the parent of a compound that is named as a salt.
Test system: abcB11
Experiment: DT1 microarray drug screening, drug-treated HepG2: abcB11
Format: cell-based, human
Details: HepG2, vinblastine sulfate 25 nM, 8 h, standard 24
Description: The labelled cDNA target preparation was thawed and the 150 μl added to 850 ul hybridisation buffer (500 mM sodium Phosphate pH 6.0, 1% SDS, 1% BSA, 1 mM EDTA) in a 1.5 ml microtube and heated at 95° C. for 10 min.

For `CC[C@]1(O)C[C@@H]2CN(CCc3c([nH]c4ccccc34)[C@@](C(=O)OC)(c3cc4c(cc3OC)N(C)[C@H]3[C@@](O)(C(=O)OC)[C@H](OC(C)=O)[C@]5(CC)C=CCN6CC[C@]43[C@@H]65)C2)C1` [vin, vinblastine sulfate], the “relative level of abcB11 gene expression” value was 9.053.

From patent US20070026408A1, “Materials and methods for analysis of atp-binding cassette transporter gene expression” (priority 2003, published 2007)
